Measurements reported in US12692270B2, “Crystal form of casein kinase 1ϵ inhibitor and preparation method and use thereof” (HANGZHOU HEALZEN THERAPEUTICS CO., LTD., priority 2020, dated 2026).
Like-named read-outs stand apart in the source and are kept apart here.

How the values were obtained:
[1] = Pharmacokinetic test in rats in vivo, plasma concentration after oral administration; details: for Cmax: 10 mg/kg, intragastric, suspension in sodium carboxymethyl cellulose solution
Description: (§1) Experimental method: SD rats were used as experimental animals and intragastrically administrated with a milky white suspension prepared from a sodium carboxymethyl cellulose solution at a dose of 10 mg/kg. After the intragastric administration, blood was collected at the time points of 0.17, 0.33, 0.5, 1, 1.5, 2, 4, 6, 8, 12 and 24 h. 0.3 ml of whole blood was taken and subjected to centrifugation, and then 0.1 ml of plasma was taken and analyzed by LC-MS.

[2] = Pharmacokinetic test in dogs in vivo, plasma concentration after oral administration; details: Beagles
Description: as §1, with “Beagles” for “SD rats”, “0,” for “0.17, 0.33,”, “1,” for “1, 1.5,”, “2, 3,” for “2,”, “8” for “8, 12”

[3] = Equilibrium solubility of crystal forms in purified water (HPLC); assay type: physicochemical; details: for Water solubility: saturated (equilibrium) solubility in purified water, room temperature, HPLC, methanesulfonate; for Solubility in water (in words): summary of Table 8
Description: Preparation of a standard curve: Appropriate amounts of a series of compounds were accurately weighed, placed in volumetric flasks, and dissolved and diluted with an appropriate amount of acetonitrile to a certain scale to serve as stock solutions. Appropriate amounts of the stock solutions were accurately weighed, placed in volumetric flasks, diluted with a mobile phase to a certain scale, and uniformly shaken to obtain a series of high-concentration standard solutions and low-concentration standard solutions. The standard solutions were separately sampled in the sequence from low concentration to high concentration, and peak areas were recorded. Linear regression was conducted with the compound concentration as the abscissa and the peak area as the ordinate to obtain a linear regression equation of a compound, namely, a standard curve of the solubility of the compound as shown in the formula (I).
Determination of equilibrium solubility: An excess amount of a compound was placed in a 10 mL plugged EP tube, 2 mL of purified water was added, and the compound was subjected to ultrasonic treatment at room temperature for 15 min, followed by standing for 20 min. The above operations were repeated for 4 times, centrifugation was conducted at 3,000 r/min for 10 min, and a supernatant was taken (after the supernatant was properly diluted with a solvent) and filtered through a microporous filtration membrane. A filtrate was taken for HPLC detection, and the peak area was recorded and substituted into the standard curve to calculate the saturated solubility of each compound in water.

[4] = SD, rat, plasma, po, mean n=3, read-out: Cmax
[5] = SD rats, mean n=3, methanesulfonate

Water solubility [3] [µg/mL] | Solubility in water (in words) [3] | Compound | further results
– | – | COc1ccc(-c2nn([C@@H](C)c3nc4cccc(Cl)c4c(=O)n3-c3ccccc3)c3ncnc(N)c23)c(F)c1F [(S)-2-(1-(4-amino-3-(2,3-difluoro-4-methoxyphenyl)-1H-pyrazolo[3,4-d]pyrimidin-1-yl)ethyl)-5-chloro-3-phenylquinazoline-4(3H)-one] | Cmax [1, 4]: 456 ng/mL
24.80 | soluble in water | COc1ccc(-c2nn([C@@H](C)c3nc4cccc(Cl)c4c(=O)n3-c3ccccc3)c3ncnc(N)c23)c(F)c1F.CS(=O)(=O)O [Crystal form F, (S)-2-(1-(4-amino-3-(2,3-difluoro-4-methoxyphenyl)-1H-pyrazolo[3,4-d]pyrimidin-1-yl)ethyl)-5-chloro-3-phenylquinazoline-4(3H)one methanesulfonate] | AUC ([2]; beagle, dog, plasma, po, intragastric, 10 mg/kg, suspension in sodium carboxymethyl cellulose solution, mean n=2, NA = value lower than the lower detection limit): 3820 ng·h/mL; Cmax [1, 5]: 2855.31 ng/mL
<1.0 | soluble in water | COc1ccc(-c2nn([C@@H](C)c3nc4cccc(Cl)c4c(=O)n3-c3ccccc3)c3ncnc(N)c23)c(F)c1F.CS(=O)(=O)O [Crystal form A, (S)-2-(1-(4-amino-3-(2,3-difluoro-4-methoxyphenyl)-1H-pyrazolo[3,4-d]pyrimidin-1-yl)ethyl)-5-chloro-3-phenylquinazoline-4(3H)one methanesulfonate] | –
2.50 | soluble in water | COc1ccc(-c2nn([C@@H](C)c3nc4cccc(Cl)c4c(=O)n3-c3ccccc3)c3ncnc(N)c23)c(F)c1F.CS(=O)(=O)O [Crystal form B, (S)-2-(1-(4-amino-3-(2,3-difluoro-4-methoxyphenyl)-1H-pyrazolo[3,4-d]pyrimidin-1-yl)ethyl)-5-chloro-3-phenylquinazoline-4(3H)one methanesulfonate] | –
3.84 | soluble in water | COc1ccc(-c2nn([C@@H](C)c3nc4cccc(Cl)c4c(=O)n3-c3ccccc3)c3ncnc(N)c23)c(F)c1F.CS(=O)(=O)O [Crystal form C, (S)-2-(1-(4-amino-3-(2,3-difluoro-4-methoxyphenyl)-1H-pyrazolo[3,4-d]pyrimidin-1-yl)ethyl)-5-chloro-3-phenylquinazoline-4(3H)one methanesulfonate] | Cmax [1, 4]: 1640 ng/mL
1.25 | soluble in water | COc1ccc(-c2nn([C@@H](C)c3nc4cccc(Cl)c4c(=O)n3-c3ccccc3)c3ncnc(N)c23)c(F)c1F.CS(=O)(=O)O [Crystal form E, (S)-2-(1-(4-amino-3-(2,3-difluoro-4-methoxyphenyl)-1H-pyrazolo[3,4-d]pyrimidin-1-yl)ethyl)-5-chloro-3-phenylquinazoline-4(3H)one methanesulfonate] | –
4.60 | soluble in water | COc1ccc(-c2nn([C@@H](C)c3nc4cccc(Cl)c4c(=O)n3-c3ccccc3)c3ncnc(N)c23)c(F)c1F.CS(=O)(=O)O [Crystal form D, (S)-2-(1-(4-amino-3-(2,3-difluoro-4-methoxyphenyl)-1H-pyrazolo[3,4-d]pyrimidin-1-yl)ethyl)-5-chloro-3-phenylquinazoline-4(3H)one methanesulfonate] | Cmax [1, 5]: 1866.0 ng/mL
– | – | COc1ccc(-c2nn([C@@H](C)c3nc4cccc(Cl)c4c(=O)n3-c3ccccc3)c3ncnc(N)c23)c(F)c1F.CS(=O)(=O)O [compound as shown in the formula (I), (S)-2-(1-(4-amino-3-(2,3-difluoro-4-methoxyphenyl)-1H-pyrazolo[3,4-d]pyrimidin-1-yl)ethyl)-5-chloro-3-phenylquinazoline-4(3H)one methanesulfonate] | Pharmacokinetic properties compared with the free alkali (in words) ([2]; oral 10 mg/kg, crystal form F investigated): significantly improved; Pharmacokinetic properties compared with the free alkali (in words) ([1]; SD rats, oral 10 mg/kg, crystal forms C, D and F investigated): significantly improved
